Source: US20130143933A1, “TARGETED CORRECTION OF A GENETIC DEFECT IN CANCER THERAPY” (TRT Pharma Inc., priority 2011, published 2013)

Tests used:
[1] = test system: A2ARE-dependent reporter activity in A549 cells; assay: ARE-dependent luciferase assay (A2ARE-luc reporter) in A549 cells; type: cell-based; details: NR16 at 1, 2.5 and 5 μM, NR13 at 2.5 μM, 24 hours, vs DMSO vehicle
Description: A549 cells are highly resistant to carboplatin and constitutively express high level of Nrf2 due to a mutation (G333C) in Keap1. Using ARE-dependent luciferase assays in A549 cells, which have constitutively high Nrf2 levels, the 18 compounds that are designed to target the CTD of Keap1 are tested. Included amongst these are NR16 and NR13. […] A2ARE-luc plasmid is transiently transfected into A549 cells. pRL-TK is included as internal control. Transfected cells are treated with DMSO vehicle, compound NR16 at 1, 2.5 and 5 μM as well as NR13 at 2.5 μM for 24 hours. **p<0.005, ***p<0.0005 when compared with DMSO vehicle.
A2ARE-luc and pRL-TK plasmids are transiently transfected into A549 cells. 6 hours after transfection, the transfected cells are exposed to DMSO vehicle control or compound at designated doses (5 μM) for 24 hours. ***p<0.0001 when compared with vehicle control.

Nrf2 [2] = assay: Immunoblotting of Nrf2 protein levels in A549 cells; type: cell-based; details: 48 hours, NR16 at 1 and 5 μM, compared to DMSO
Description: This effect is mediated by a depletion of Nrf2, as confirmed by immunoblotting of Nrf2 protein levels in A549 cells, exposed to NR16 for 48 hours (FIG. 4).

MCF7 cells = assay: Sensitization to cisplatin or paclitaxel in Keap1-depleted (siRNA) MCF7 cells, Alamar blue; type: cell-based; details: MCF7 cells with Keap1 depletion (siRNA); PF-04691502 50nM for 24 h
Description: To further test the specific cytotoxicity of PF-04691502, H460 cells are transfected with an siRNA specifically designed to deplete GSK-3R levels. Another siRNA that depletes Keap1 is used to test whether cells which have an activating mutation of PI3K, but WT Keap1, (e.g. MCF7), are sensitized by PF-04691502 when Keap1 is depleted. The pSuper platform (OligoEngine, Seattle, Wash.) is used to clone both siRNAs. Small inhibitory RNA sequences are designed using software available online at invitrogen.com. The siRNA, when dimerized form Bgl II and Hind III restriction sites. The oligos are cloned into the Bgl II/Hind III sites of the pSuper-puro vector.
These experiments confirm that the proposed mechanism of sensitization is GSK-dependent in Keap1 mutated or depleted (siRNA) cells. Cells are exposed to PF-04691502 50nM for 24 h, at which time media is replaced with fresh PF-04691502 and one of either cisplatin or paclitaxel is added at various doses. Cell survival is determined using Alamar blue. The shift in IC50 is determined.

[3] = test system: A549 cells (wild type PI3K); assay: phospho-GSK / Nrf2 level in A549 cells exposed to PF-04691502; type: cell-based; details: even at a higher dose
Description: (§1) H460 cells, which bear both mutations in PI3K (E545K) and Keap1 (D286H) are exposed the cells to the dual and potent PI3K and mTOR inhibitor PF-04691502 currently in clinical development. Within 6 hours a dramatic drop in phospho-GSK at the critical Ser9 position is detected (FIG. 6A). Within 24 hours cellular Nrf2 is reduced (FIG. 6A). This is not observed even at a higher dose in A549 cells, which have wild type PI3K (FIG. 6B).

MCF-7 cells = assay: Sensitization to paclitaxel, AlamarBlue cell survival, MCF-7; type: cell-based; details: MCF-7, PI3K mutation but no Keap1 mutation
pAkt (and pGSK-3β) = details: mouse xenograft models; oral, once daily, 10 mg/Kg; cited from earlier work
H460 cells = assay: Sensitization to paclitaxel, AlamarBlue cell survival, H460; type: cell-based; details: PF at 10 and 50 nm, range of paclitaxel doses
Description: PF-04691502 is tested to determine is it sensitizes H460 cells to paclitaxel in vitro, using two concentrations of PF (10 and 50 nm) and a range of paclitaxel doses. Cell survival is measured using AlamarBlue and fluorescence detection for viable (metabolically active) cells with 560Exnm/590EMnm filters.

Nrf2 [4] = assay: Cellular Nrf2 level in H460 cells exposed to PF-04691502; type: cell-based; details: within 24 hours
Description: as §1

[5] = test system: phospho-GSK at Ser9 position; assay: phospho-GSK (Ser9) level in H460 cells exposed to PF-04691502; type: cell-based; details: H460 cells (PI3K E545K, Keap1 D286H); within 6 hours
Description: as §1

A549 = assay: Sensitization to paclitaxel, AlamarBlue cell survival, A549; type: cell-based; details: A549, Keap1 mutation but wild type PI3K

Structure (SMILES)	A2ARE-dependent reporter activity [1]	Nrf2 protein level (western blot) (Nrf2 [2])	sensitization to cisplatin or paclitaxel (cell survival) (MCF7 cells)	drop in phospho-GSK / reduction of cellular Nrf2 [3]	sensitization to paclitaxel (cell survival) (MCF-7 cells)	depletion of phosphorylated forms of proteins in the PI3K pathway such as pAkt (and pGSK-3β) (pAkt (and pGSK-3β))	persistence of depletion of phosphorylated PI3K pathway proteins (pAkt (and pGSK-3β))	sensitization to paclitaxel (cell survival) (H460 cells)	cellular Nrf2 (Nrf2 [4])	phospho-GSK at Ser9 position [5]	sensitization to paclitaxel (cell survival) (A549)
O=C(CCCSCCCC(=O)N/N=C/c1ccccc1)N/N=C/c1ccccc1 [NR13]	inactive	inactive	–	–	–	–	–	–	–	–	–
O=C(CCCSCCCC(=O)N/N=C/c1ccccc1O)N/N=C/c1ccccc1O [NR16]	suppressed A2ARE-dependent reporter activity	dose-dependent decrease	–	–	–	–	–	–	–	–	–
COc1ccc(-c2cc3c(C)nc(N)nc3n([C@H]3CC[C@H](OCCO)CC3)c2=O)cn1 [PF-04691502]	–	–	sensitizing effect	not observed	no sensitization	significant depletion	≥ 8 h	significant sensitization	reduced	dramatic drop	no sensitization
